From PubChem BioAssay AID330 (DTP/NCI, 2004)
Several values for one entry are separate records, joined by “and”; a condition that tells them apart may be missing. Equal values may be shown once. Inconclusive results and toxic doses are left out. Rule for the calls: active = survival T/C of 150% or more; inactive = T/C below 125% in these data.

Test system: P388 leukemia ip, CD2F1 mice, survival T/C
Assay: NCI In Vivo Anticancer Drug Screen. Data for tumor model P388 Leukemia (intraperitoneal) in CD2F1 (CDF1) mice
Details: endpoint: median survival time, higher = longer survival
Method in brief: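 Mice carrying the transplanted tumor received test compound or vehicle. Survival was recorded in each group, and the value is the treated-group measurement divided by that of the vehicle-treated control group.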

[1] = dose: 100.0 mg/kg/injection, schedule: Q04DX003 (ip), vehicle: saline
[2] = dose: 200.0 mg/kg/injection, schedule: Q04DX003 (ip), vehicle: saline
[3] = dose: 50.0 mg/kg/injection, schedule: Q01DX009 (ip), vehicle: saline with Tween-80
[4] = dose: 12.5 mg/kg/injection, schedule: Q01DX009 (ip), vehicle: saline
[5] = dose: 25.0 mg/kg/injection, schedule: Q01DX009 (ip), vehicle: saline
[6] = dose: 50.0 mg/kg/injection, schedule: Q01DX009 (ip), vehicle: saline

Measured: T/C

COc1ccc(-n2c(=O)c(N=Nc3ccc(C)cc3)c(O)n(-c3ccccc3Cl)c2=S)cc1
inactive: dose: 50.0 mg/kg/injection, schedule: Q01DX001 (ip), vehicle: Klucel (hydroxypropylcellulose) (HPC) 96 % of control | dose: 100.0 mg/kg/injection, schedule: Q01DX001 (ip), vehicle: Klucel (hydroxypropylcellulose) (HPC) 99 % of control | dose: 200.0 mg/kg/injection, schedule: Q01DX001 (ip), vehicle: Klucel (hydroxypropylcellulose) (HPC) 96 % of control

CC1=C(C)C(=O)C(C(C)(C)CC(=O)Sc2ncnc3nc[nH]c23)=C(C)C1=O
inactive: dose: 100.0 mg/kg/injection, schedule: Q04DX002 (ip), vehicle: saline with Tween-80 97 % of control | dose: 200.0 mg/kg/injection, schedule: Q04DX002 (ip), vehicle: saline with Tween-80 99 % of control

c1ccc(Cn2ccnc2)nc1
inactive: dose: 50.0 mg/kg/injection, schedule: Q04DX003 (ip), vehicle: saline 103 % of control | [1] 100 % of control | [2] 101 % of control

Cc1oc2ccccc2c(=O)c1CN(CCO)CCO
inactive: dose: 60.0 mg/kg/injection, schedule: Q01DX005 (ip), vehicle: saline 95 % of control | dose: 120.0 mg/kg/injection, schedule: Q01DX005 (ip), vehicle: saline 101 % of control

CSC(=S)c1ccc(NSc2ccccc2[N+](=O)[O-])cc1
inactive: [1] 113 % of control | [2] 110 % of control | dose: 400.0 mg/kg/injection, schedule: Q04DX003 (ip), vehicle: saline 93 % of control

NC1C(NO)OC(CO)C(O)C1O (stereo unspecified)
inactive: dose: 50.0 mg/kg/injection, schedule: Q01DX005 (ip), vehicle: saline 97 % of control | dose: 100.0 mg/kg/injection, schedule: Q01DX005 (ip), vehicle: saline 96 % of control | dose: 200.0 mg/kg/injection, schedule: Q01DX005 (ip), vehicle: saline 97 % of control

COc1cc2c(c3oc4c(O)cccc4c(=O)c13)CC(C(C)(O)CO)O2 (stereo unspecified)
inactive: dose: 3.5 mg/kg/injection, schedule: Q01DX005 (ip), vehicle: Klucel (hydroxypropylcellulose) (HPC) 105 % of control | dose: 7.0 mg/kg/injection, schedule: Q01DX005 (ip), vehicle: Klucel (hydroxypropylcellulose) (HPC) 96 % of control | dose: 14.0 mg/kg/injection, schedule: Q01DX005 (ip), vehicle: Klucel (hydroxypropylcellulose) (HPC) 96 % of control | dose: 28.0 mg/kg/injection, schedule: Q01DX005 (ip), vehicle: Klucel (hydroxypropylcellulose) (HPC) 92 % of control

CCCCCCCCCCCCCCCCCC(=O)[O][Pb]([CH3])([CH3])[CH3]
inactive: dose: 1.25 mg/kg/injection, schedule: Q01DX009 (ip), vehicle: Klucel (hydroxypropylcellulose) (HPC) 107 % of control | dose: 2.5 mg/kg/injection, schedule: Q01DX009 (ip), vehicle: Klucel (hydroxypropylcellulose) (HPC) 113 % of control | dose: 5.0 mg/kg/injection, schedule: Q01DX009 (ip), vehicle: Klucel (hydroxypropylcellulose) (HPC) 101 % of control | dose: 6.25 mg/kg/injection, schedule: Q04DX003 (ip), vehicle: Klucel (hydroxypropylcellulose) (HPC) 94 % of control | dose: 12.5 mg/kg/injection, schedule: Q04DX003 (ip), vehicle: Klucel (hydroxypropylcellulose) (HPC) 111 % of control | dose: 25.0 mg/kg/injection, schedule: Q04DX003 (ip), vehicle: Klucel (hydroxypropylcellulose) (HPC) 92 % of control

O=C(O)C(=O)O.[NH2-].[NH2-].[NH2-].[NH2-].[Ru+4]
inactive: dose: 3.13 mg/kg/injection, schedule: Q04DX003 (ip), vehicle: water 110 % of control | dose: 25.0 mg/kg/injection, schedule: Q04DX003 (ip), vehicle: water 98 % of control

O=c1c(Br)cc(CN2CCOCC2)cc(CN2CCOCC2)c1O
inactive: [3] 112 % of control | dose: 100.0 mg/kg/injection, schedule: Q01DX009 (ip), vehicle: saline with Tween-80 116 % of control

O=C1c2ccc(Cl)cc2NC(O)c2cccn21 (stereo unspecified)
inactive: dose: 0.1 mg/kg/injection, schedule: Q01DX005 (ip), vehicle: water 99 % of control | dose: 0.2 mg/kg/injection, schedule: Q01DX005 (ip), vehicle: water 98 % of control | dose: 0.4 mg/kg/injection, schedule: Q01DX005 (ip), vehicle: water 98 % of control | dose: 0.8 mg/kg/injection, schedule: Q01DX005 (ip), vehicle: water 100 % of control | dose: 1.6 mg/kg/injection, schedule: Q01DX005 (ip), vehicle: water 98 % of control | dose: 5.0 mg/kg/injection, schedule: Q01DX005 (ip), vehicle: distilled water + Tween-80 95 % of control | dose: 10.0 mg/kg/injection, schedule: Q01DX005 (ip), vehicle: distilled water + Tween-80 99 % of control | dose: 20.0 mg/kg/injection, schedule: Q01DX005 (ip), vehicle: distilled water + Tween-80 100 % of control | dose: 40.0 mg/kg/injection, schedule: Q01DX005 (ip), vehicle: distilled water + Tween-80 93 % of control | dose: 80.0 mg/kg/injection, schedule: Q01DX005 (ip), vehicle: distilled water + Tween-80 98 % of control

O=C1CCCC2=C1C(c1ccccc1)/C(=N/O)O2 (stereo unspecified)
inactive: dose: 50.0 mg/kg/injection, schedule: Q04DX003 (ip), vehicle: Klucel (hydroxypropylcellulose) (HPC) 97 % of control | dose: 100.0 mg/kg/injection, schedule: Q04DX003 (ip), vehicle: Klucel (hydroxypropylcellulose) (HPC) 101 % of control | dose: 200.0 mg/kg/injection, schedule: Q04DX003 (ip), vehicle: Klucel (hydroxypropylcellulose) (HPC) 100 % of control and 90 % of control

OC(Nc1nccs1)C(F)(F)F (stereo unspecified)
inactive: [4] 99 % of control | [5] 100 % of control | [3] 95 % of control | [6] 101 % of control

c1cc2c3c(cccc3c1)-c1nc3c(ccc4ccccc43)nc1-2
inactive: dose: 50.0 mg/kg/injection, schedule: Q01DX009 (ip), vehicle: Klucel (hydroxypropylcellulose) (HPC) 107 % of control | dose: 100.0 mg/kg/injection, schedule: Q01DX009 (ip), vehicle: Klucel (hydroxypropylcellulose) (HPC) 101 % of control | dose: 200.0 mg/kg/injection, schedule: Q01DX009 (ip), vehicle: Klucel (hydroxypropylcellulose) (HPC) 93 % of control | dose: 400.0 mg/kg/injection, schedule: Q01DX009 (ip), vehicle: Klucel (hydroxypropylcellulose) (HPC) 107 % of control

C1=Nc2ccccc2N=Cc2ccccc2NCCNc2ccccc21
inactive: dose: 6.25 mg/kg/injection, schedule: Q01DX009 (ip), vehicle: saline 98 % of control | [4] 101 % of control | [5] 92 % of control

CCn1cnc2c(SC)ncnc21
inactive: [4] 100 % of control | [5] 100 % of control | [6] 95 % of control | dose: 100.0 mg/kg/injection, schedule: Q04DX003 (ip), vehicle: other 100 % of control

CCOC(=O)CCC(=O)Nc1ccccc1C#N
inactive: [6] 102 % of control | dose: 100.0 mg/kg/injection, schedule: Q01DX009 (ip), vehicle: saline 93 % of control | dose: 200.0 mg/kg/injection, schedule: Q01DX009 (ip), vehicle: saline 102 % of control

Fc1ccc(Nc2c3ccccc3nc3c2cnn3-c2ccccc2)cc1
inactive: dose: 50.0 mg/kg/injection, schedule: Q01DX005 (ip), vehicle: Klucel (hydroxypropylcellulose) (HPC) 91 % of control | dose: 60.0 mg/kg/injection, schedule: Q01DX005 (ip), vehicle: Klucel (hydroxypropylcellulose) (HPC) 86 % of control | dose: 100.0 mg/kg/injection, schedule: Q01DX005 (ip), vehicle: Klucel (hydroxypropylcellulose) (HPC) 87 % of control | dose: 200.0 mg/kg/injection, schedule: Q01DX005 (ip), vehicle: Klucel (hydroxypropylcellulose) (HPC) 87 % of control | dose: 240.0 mg/kg/injection, schedule: Q01DX005 (ip), vehicle: Klucel (hydroxypropylcellulose) (HPC) 90 % of control
